Data: PubChem BioAssay AID180 (DTP/NCI, 2004)
Where “and” joins values, the source holds several entries; their conditions need not be identical. Equal values may be shown once.

System: BDF1 mice, Adenocarcinoma 755 s.c., tumor weight T/C
Assay: NCI In Vivo Anticancer Drug Screen. Data for tumor model Adenocarcinoma 755 (subcutaneous) in B6D2F1 (BDF1) mice
Settings: endpoint: mean tumor weight, higher = larger tumour
Method in brief: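 Tumor-bearing mice receive test compound while controls get vehicle alone. Antitumor effect is scored from survival or tumor dimensions as a T/C quotient.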

[1] = dose: 30.0 mg/kg/injection, schedule: Q01DX011 (ip), vehicle: saline
[2] = dose: 60.0 mg/kg/injection, schedule: Q01DX011 (ip), vehicle: saline
[3] = dose: 120.0 mg/kg/injection, schedule: Q01DX011 (ip), vehicle: saline
[4] = dose: 240.0 mg/kg/injection, schedule: Q01DX011 (ip), vehicle: saline

NC1(C(=O)O)CCCC1
T/C (dose: 4.45 mg/kg/injection, schedule: Q01DX011 (ip), vehicle: carboxymethylcellulose (CMC)): 71 % of control
T/C (dose: 7.5 mg/kg/injection, schedule: Q01DX011 (ip), vehicle: methylcellulose (MC)): 61 % of control
T/C (dose: 8.9 mg/kg/injection, schedule: Q01DX011 (ip), vehicle: carboxymethylcellulose (CMC)): 70 % of control
T/C (dose: 13.12 mg/kg/injection, schedule: Q01DX011 (ip), vehicle: carboxymethylcellulose (CMC)): 42 % of control
T/C (dose: 14.24 mg/kg/injection, schedule: Q01DX011 (ip), vehicle: carboxymethylcellulose (CMC)): 83 % of control
T/C (dose: 15.0 mg/kg/injection, schedule: Q01DX011 (ip), vehicle: methylcellulose (MC)): 96 % of control
T/C (dose: 16.0 mg/kg/injection, schedule: Q01DX011 (ip), vehicle: saline): 43 % of control
T/C (dose: 18.0 mg/kg/injection, schedule: Q01DX011 (ip), vehicle: methylcellulose (MC)): 40 % of control
T/C (dose: 23.73 mg/kg/injection, schedule: Q01DX011 (ip), vehicle: carboxymethylcellulose (CMC)): 55 % of control
T/C (dose: 30.0 mg/kg/injection, schedule: Q01DX011 (ip), vehicle: methylcellulose (MC)): 12 % of control
T/C (dose: 31.3 mg/kg/injection, schedule: Q01DX011 (ip), vehicle: saline): 13 % of control
T/C (dose: 35.6 mg/kg/injection, schedule: Q01DX011 (ip), vehicle: carboxymethylcellulose (CMC)): 33 % of control and 38 % of control
T/C (dose: 37.5 mg/kg/injection, schedule: Q01DX011 (ip), vehicle: methylcellulose (MC)): 16 % of control
T/C (dose: 42.0 mg/kg/injection, schedule: Q01DX011 (ip), vehicle: carboxymethylcellulose (CMC)): 31 % of control
T/C (dose: 42.0 mg/kg/injection, schedule: Q01DX011 (oral), vehicle: saline): 10 % of control
T/C (dose: 52.5 mg/kg/injection, schedule: Q01DX011 (ip), vehicle: carboxymethylcellulose (CMC)): 8 % of control and 14 % of control
T/C (dose: 60.0 mg/kg/injection, schedule: Q01DX011 (ip), vehicle: methylcellulose (MC)): 12 % of control
T/C (dose: 62.5 mg/kg/injection, schedule: Q01DX011 (ip), vehicle: saline): 6 % of control
T/C (dose: 63.0 mg/kg/injection, schedule: Q01DX011 (oral), vehicle: saline): 4 % of control
T/C (dose: 70.0 mg/kg/injection, schedule: Q01DX011 (ip), vehicle: carboxymethylcellulose (CMC)): 4 % of control
T/C (dose: 95.0 mg/kg/injection, schedule: Q01DX011 (oral), vehicle: saline): 1 % of control
T/C (dose: 105.0 mg/kg/injection, schedule: Q01DX011 (ip), vehicle: carboxymethylcellulose (CMC)): 3 % of control and 6 % of control

CS(=O)(=O)OCC1OC(O)CC1O (stereo unspecified)
T/C (dose: 25.0 mg/kg/injection, schedule: Q01DX011 (ip), vehicle: saline): 113 % of control
T/C (dose: 75.0 mg/kg/injection, schedule: Q01DX011 (ip), vehicle: saline): 153 % of control

CN(C)c1ccc(/C=C\c2ccnc3ccccc23)cc1
T/C (dose: 3.1 mg/kg/injection, schedule: Q01DX011 (ip), vehicle: water): 100 % of control
T/C (dose: 5.0 mg/kg/injection, schedule: Q01DX011 (ip), vehicle: methylcellulose (MC)): 96 % of control
T/C (dose: 6.25 mg/kg/injection, schedule: Q01DX011 (ip), vehicle: water): 97 % of control
T/C (dose: 10.0 mg/kg/injection, schedule: Q01DX011 (ip), vehicle: methylcellulose (MC)): 96 % of control
T/C (dose: 12.5 mg/kg/injection, schedule: Q01DX011 (ip), vehicle: water): 90 % of control
T/C (dose: 20.0 mg/kg/injection, schedule: Q01DX011 (ip), vehicle: methylcellulose (MC)): 86 % of control
T/C (dose: 25.0 mg/kg/injection, schedule: Q01DX011 (ip), vehicle: water): 81 % of control
T/C (dose: 50.0 mg/kg/injection, schedule: Q01DX011 (ip), vehicle: water): 55 % of control
T/C (dose: 100.0 mg/kg/injection, schedule: Q01DX011 (ip), vehicle: water): 64 % of control

CCCCn1cnc2c(=O)[nH]cnc21
T/C (dose: 0.9 mg/kg/injection, schedule: Q01DX011 (ip), vehicle: carboxymethylcellulose (CMC)): 76 % of control
T/C (dose: 1.8 mg/kg/injection, schedule: Q01DX011 (ip), vehicle: carboxymethylcellulose (CMC)): 83 % of control
T/C (dose: 1.8 mg/kg/injection, schedule: Q01DX011 (oral), vehicle: carboxymethylcellulose (CMC)): 76 % of control
T/C (dose: 3.7 mg/kg/injection, schedule: Q01DX011 (ip), vehicle: carboxymethylcellulose (CMC)): 91 % of control
T/C (dose: 3.7 mg/kg/injection, schedule: Q01DX011 (oral), vehicle: carboxymethylcellulose (CMC)): 107 % of control
T/C (dose: 7.5 mg/kg/injection, schedule: Q01DX011 (ip), vehicle: carboxymethylcellulose (CMC)): 63 % of control
T/C (dose: 7.5 mg/kg/injection, schedule: Q01DX011 (oral), vehicle: carboxymethylcellulose (CMC)): 82 % of control
T/C (dose: 15.0 mg/kg/injection, schedule: Q01DX011 (oral), vehicle: carboxymethylcellulose (CMC)): 90 % of control
T/C (dose: 40.0 mg/kg/injection, schedule: Q01DX001 (ip), vehicle: other): 60 % of control
T/C (dose: 66.1 mg/kg/injection, schedule: Q01DX011 (ip), vehicle: other): 111 % of control
T/C (dose: 81.0 mg/kg/injection, schedule: Q01DX001 (ip), vehicle: other): 45 % of control
T/C (dose: 132.2 mg/kg/injection, schedule: Q01DX011 (ip), vehicle: other): 90 % of control
T/C (dose: 132.25 mg/kg/injection, schedule: Q01DX011 (ip), vehicle: carboxymethylcellulose (CMC)): 58 % of control
T/C (dose: 132.25 mg/kg/injection, schedule: Q01DX011 (oral), vehicle: carboxymethylcellulose (CMC)): 70 % of control
T/C (dose: 162.0 mg/kg/injection, schedule: Q01DX001 (ip), vehicle: other): 122 % of control
T/C (dose: 264.5 mg/kg/injection, schedule: Q01DX011 (ip), vehicle: carboxymethylcellulose (CMC)): 105 % of control
T/C (dose: 264.5 mg/kg/injection, schedule: Q01DX011 (ip), vehicle: other): 76 % of control
T/C (dose: 264.5 mg/kg/injection, schedule: Q01DX011 (oral), vehicle: carboxymethylcellulose (CMC)): 86 % of control
T/C (dose: 324.0 mg/kg/injection, schedule: Q01DX001 (ip), vehicle: other): 102 % of control
T/C (dose: 529.0 mg/kg/injection, schedule: Q01DX011 (oral), vehicle: carboxymethylcellulose (CMC)): 89 % of control

Nc1nc(I)c2ncn(C3OC(CO)C(O)C3O)c2n1 (stereo unspecified)
T/C [1]: 113 % of control
T/C [2]: 121 % of control
T/C [3]: 82 % of control
T/C [4]: 62 % of control
T/C (dose: 400.0 mg/kg/injection, schedule: Q01DX011 (ip), vehicle: saline): 9 % of control
T/C (dose: 600.0 mg/kg/injection, schedule: Q01DX011 (ip), vehicle: saline): 47 % of control

CCCCN(C)N=Nc1ccc(OCC(=O)NN)cc1
T/C (dose: 50.0 mg/kg/injection, schedule: Q01DX011 (ip), vehicle: carboxymethylcellulose (CMC)): 75 % of control

O=C1N(Cl)C(=O)C(c2ccc(Cl)cc2)(c2ccc(Cl)cc2)N1Cl
T/C (dose: 7.5 mg/kg/injection, schedule: Q#A X022 (ip), vehicle: saline): 161 % of control
T/C (dose: 15.0 mg/kg/injection, schedule: Q01DX011 (ip), vehicle: saline): 100 % of control
T/C (dose: 15.0 mg/kg/injection, schedule: Q#A X022 (ip), vehicle: saline): 107 % of control
T/C [1]: 52 % of control
T/C (dose: 30.0 mg/kg/injection, schedule: Q#A X022 (ip), vehicle: saline): 67 % of control
T/C (dose: 45.0 mg/kg/injection, schedule: Q03DX004 (ip), vehicle: saline): 73 % of control
T/C [2]: 62 % of control
T/C (dose: 60.0 mg/kg/injection, schedule: Q#A X022 (ip), vehicle: saline): 28 % of control
T/C (dose: 90.0 mg/kg/injection, schedule: Q03DX004 (ip), vehicle: saline): 78 % of control
T/C [3]: 23 % of control and 28 % of control
T/C (dose: 180.0 mg/kg/injection, schedule: Q03DX004 (ip), vehicle: saline): 61 % of control
T/C [4]: 15 % of control
T/C (dose: 360.0 mg/kg/injection, schedule: Q03DX004 (ip), vehicle: saline): 36 % of control
T/C (dose: 480.0 mg/kg/injection, schedule: Q01DX011 (ip), vehicle: saline): 16 % of control

CSc1ncnc2c1ncn2CCCl
T/C (dose: 1.5 mg/kg/injection, schedule: Q01DX011 (ip), vehicle: carboxymethylcellulose (CMC)): 92 % of control
T/C (dose: 3.0 mg/kg/injection, schedule: Q01DX011 (ip), vehicle: carboxymethylcellulose (CMC)): 80 % of control
T/C (dose: 6.0 mg/kg/injection, schedule: Q01DX011 (ip), vehicle: carboxymethylcellulose (CMC)): 31 % of control
T/C (dose: 6.2 mg/kg/injection, schedule: Q01DX011 (ip), vehicle: carboxymethylcellulose (CMC)): 34 % of control
T/C (dose: 12.5 mg/kg/injection, schedule: Q01DX011 (ip), vehicle: carboxymethylcellulose (CMC)): 4 % of control

Cc1cc2nc3c(=O)[nH]c(=O)nc-3n(CCO)c2cc1C
T/C (dose: 800.0 mg/kg/injection, schedule: Q01DX011 (ip), vehicle: methylcellulose (MC)): 98 % of control
T/C (dose: 1000.0 mg/kg/injection, schedule: Q01DX011 (ip), vehicle: methylcellulose (MC)): 95 % of control
